Measured values reported in patent US7182954B1, “Prebiotic oligosaccharides via alternansucrase acceptor reactions” (priority 2003, dated 2007).

System: alternansucrase
Assay: Comparison of acceptor strengths with alternansucrase, relative amount of alternan formed
Conditions: for Alternan (Rel. %): 45 μL 10% (w/v) sucrose, 45 μL 10% (w/v) acceptor, 10 μL alternansucrase, pH 5.4, room temperature, less alternan = stronger acceptor; for acceptor strength for alternansucrase, in words: text summary of Table I

Structure (SMILES) | Alternan (Rel. %) | acceptor strength for alternansucrase, in words
O=CC[C@H](O)[C@H](O)CO [2-deoxy-D-ribose] | 81 | –
O=C[C@H](O)[C@H](O)[C@H](O)[C@H](O)CO [D-allose] | 75 | –
O=C[C@@H](O)[C@H](O)[C@H](O)[C@H](O)CO [D-altrose] | 92 | –
O=C[C@@H](O)[C@H](O)[C@H](O)CO [D-arabinose] | 99 | –
O=C(CO)[C@@H](O)[C@H](O)[C@H](O)CO [D-fructose] | 78 | –
O=C[C@H](O)[C@@H](O)[C@@H](O)[C@H](O)CO [D-galactose] | 83 | –
O=C[C@@H](O)[C@@H](O)[C@H](O)CO [D-lyxose] | 99 | –
O=C[C@@H](O)[C@@H](O)[C@H](O)[C@H](O)CO [D-mannose] | 90 | –
O=C(CO)[C@H](O)[C@H](O)[C@H](O)CO [D-psicose] | 85 | –
C[C@@H](O)[C@@H](O)[C@H](O)[C@@H](O)C=O [D-quinovose] | 61 | –
O=C[C@H](O)[C@H](O)[C@H](O)CO [D-ribose] | 93 | –
O=C(CO)[C@H](O)[C@@H](O)[C@H](O)CO [D-sorbose] | 97 | –
O=C(CO)[C@@H](O)[C@@H](O)[C@H](O)CO [D-tagatose] | 65 | –
O=C[C@@H](O)[C@@H](O)[C@@H](O)[C@H](O)CO [D-talose] | 77 | –
O=C[C@H](O)[C@@H](O)[C@H](O)CO [D-xylose] | 86 | –
O=C[C@H](O)[C@@H](O)[C@@H](O)CO [L-arabinose] | 75 | –
C[C@H](O)[C@@H](O)[C@@H](O)[C@H](O)C=O [L-fucose] | 94 | –
O=C[C@H](O)[C@H](O)[C@@H](O)CO [L-lyxose] | 92 | –
C[C@H](O)[C@H](O)[C@@H](O)[C@@H](O)C=O [L-rhamnose] | 96 | –

Next, values leading:

Alternan (Rel. %) | acceptor strength for alternansucrase, in words | Structure (SMILES)
91 | – | OC[C@H]1O[C@@H](O[C@@H]2[C@@H](CO)OC(O)(CO)[C@H]2O)[C@H](O)[C@@H](O)[C@H]1O (mixture of isomers) [lactulose]
89 | – | O=CC[C@@H](O)[C@@H](O)[C@H](O)CO [2-deoxy-D-galactose]
59 | – | O=CC[C@@H](O)[C@H](O)[C@H](O)CO [2-deoxy-D-glucose]
31 | – | O=C[C@H](O)[C@@H](O[C@H]1O[C@H](CO)[C@@H](O)[C@H](O)[C@H]1O)[C@H](O)[C@H](O)CO[C@H]1O[C@H](CO)[C@@H](O)[C@H](O)[C@H]1O [3′-O-α-D-Glc isomaltose, 3-O-α-D-glucopyranosyl-6-O-α-D-glucopyranosyl-D-glucose]
54 | relatively good acceptors | OC[C@H]1O[C@H](OC[C@H]2O[C@H](O[C@H]3O[C@H](CO[C@H]4O[C@H](CO)[C@@H](O)[C@H](O)[C@H]4O)[C@@H](O)[C@H](O)[C@H]3O)[C@H](O)[C@@H](O)[C@@H]2O)[C@H](O)[C@@H](O)[C@@H]1O [6,6′-di-O-α-D-Glc-trehalose, 6,6′-di-O-α-D-glucopyranosyl-α,α-trehalose]
56 | relatively good acceptors | OC[C@H]1O[C@H](OC[C@H]2O[C@H](O[C@H]3O[C@H](CO)[C@@H](O)[C@H](O)[C@H]3O)[C@H](O)[C@@H](O)[C@@H]2O)[C@H](O)[C@@H](O)[C@@H]1O [6-O-α-D-Glc-trehalose, 6-O-α-D-glucopyranosyl-α,α-trehalose]
36 | – | OC[C@H]1O[C@H](OC[C@H]2O[C@H](OC[C@H]3O[C@H](O[C@H]4[C@H](O)[C@@H](O)C(O)O[C@@H]4CO)[C@H](O)[C@@H](O)[C@@H]3O)[C@H](O)[C@@H](O)[C@@H]2O)[C@H](O)[C@@H](O)[C@@H]1O (stereo partly drawn) [6″-O-α-D-Glc panose]
63 | – | O=C[C@@H](O)[C@H](O)[C@@H](O)[C@@H](O)CO [L-glucose]
